Test results published in patent US8415342B2, “Besifloxacin ophthalmic composition for the treatment or control of infection” (Bausch & Lomb Incorporated, priority 2008, dated 2013).
In brackets after ≈: the same amount, converted by molar mass. Several values for one entry are separate records, joined by “and”; a condition that tells them apart may be missing. Equal values may be shown once. Read-outs that look alike come from different tables or passages of the source.

Experiments:
[1] = system: ocular isolates (S. pneumoniae, S. epidermidis, H. influenzae, and S. aureus); assay: MBC versus MIC, all recent ocular isolates tested; type: cell-based
Text: The success of in vivo antimicrobial action depends to a large extent on the host's defense mechanisms, which ultimately sequester and kill the microorganisms that have been reduced by the bacteriostatic/bactericidal action of the antibacterial agent. Thus, it is also of interest to profile the bactericidal activity of antimicrobial agents. The assessment of in vitro bactericidal activity can be accomplished in multiple ways, for example, the time-kill method or the determination of the minimum bactericidal concentration (MBC). […] Bactericidal agents are characterized by low MBC:MIC ratios.

[2] = Binding to proteins in human plasma; type: in vitro ADME
Text: The relationship between the concentration of besifloxacin in human tear fluid and the concentration required for antimicrobial activity was quantified by calculating the ratios of Cmax/MIC90 and AUC24/MIC90. For the purpose of calculating these PK/PD ratios, a PK model was used to simulate besifloxacin concentrations with a TID dosing regimen. An additional consideration in this analysis is the potential role of protein binding, which could effectively lower the concentration of unbound (free) besifloxacin. The inhibitory effect of protein binding on antibacterial efficacy has been reported for β-lactams; however, there is no general consensus about the role of protein binding on the antibacterial activity of fluoroquinolones (Bergogne-Berezin, 2002; Craig & Ebert, 1989; Drusano, 1988; Merrikin et al., 1983; Turnidge, 1999; Zeitlinger et al., 2008). […] In order to evaluate the potential theoretical maximum impact of protein binding on besifloxacin activity, Cmax/MIC90 and AUC24/MIC90 ratios were calculated based on the PK estimates for total (bound and free) and free (unbound) besifloxacin (Table 10).

[3] = system: baseline pathogens of bacterial conjunctivitis patients; assay: MIC of baseline clinical trial isolates, Studies 373, 433, 434 (all species); type: cell-based
[4] = Predicted PK/PD ratios in tears with simulated TID dosing (Table 10); set-up: species or system human; conditions: for Cmax/MIC90, Free / AUC24/MIC90, Free: tears, free besifloxacin (40% bound); for AUC24/MIC90, Free: predicted TID
S. pneumoniae DNA gyrase [5] = biological target: T1, S. pneumoniae DNA gyrase (Streptococcus pneumoniae serotype 4, UniProt P0A4L9+P72524); assay: Catalytic inhibition of purified DNA gyrase; type: biochemical
T1 sequence (P72524 whole entry): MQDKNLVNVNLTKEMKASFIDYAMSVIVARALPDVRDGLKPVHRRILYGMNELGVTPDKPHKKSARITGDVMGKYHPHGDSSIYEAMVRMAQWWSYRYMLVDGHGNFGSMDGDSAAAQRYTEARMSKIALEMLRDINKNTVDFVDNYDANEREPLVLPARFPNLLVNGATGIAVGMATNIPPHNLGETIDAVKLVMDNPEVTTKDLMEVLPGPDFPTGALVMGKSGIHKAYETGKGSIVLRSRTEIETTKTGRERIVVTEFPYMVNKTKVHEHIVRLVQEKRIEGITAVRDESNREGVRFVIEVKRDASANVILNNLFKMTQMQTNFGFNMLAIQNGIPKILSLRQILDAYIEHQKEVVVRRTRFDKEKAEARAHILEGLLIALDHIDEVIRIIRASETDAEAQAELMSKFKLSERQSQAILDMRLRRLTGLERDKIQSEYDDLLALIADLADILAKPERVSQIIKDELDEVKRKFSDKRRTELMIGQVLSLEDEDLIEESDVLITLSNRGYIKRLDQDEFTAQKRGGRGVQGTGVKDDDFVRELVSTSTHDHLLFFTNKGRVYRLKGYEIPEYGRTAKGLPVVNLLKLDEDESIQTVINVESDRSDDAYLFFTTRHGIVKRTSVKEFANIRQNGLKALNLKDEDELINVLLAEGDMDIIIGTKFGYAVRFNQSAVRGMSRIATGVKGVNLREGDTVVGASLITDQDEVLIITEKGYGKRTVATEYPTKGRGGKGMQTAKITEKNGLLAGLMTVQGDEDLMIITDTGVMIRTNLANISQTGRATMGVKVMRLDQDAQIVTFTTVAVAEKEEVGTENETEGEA
T1 sequence (P0A4L9 whole entry): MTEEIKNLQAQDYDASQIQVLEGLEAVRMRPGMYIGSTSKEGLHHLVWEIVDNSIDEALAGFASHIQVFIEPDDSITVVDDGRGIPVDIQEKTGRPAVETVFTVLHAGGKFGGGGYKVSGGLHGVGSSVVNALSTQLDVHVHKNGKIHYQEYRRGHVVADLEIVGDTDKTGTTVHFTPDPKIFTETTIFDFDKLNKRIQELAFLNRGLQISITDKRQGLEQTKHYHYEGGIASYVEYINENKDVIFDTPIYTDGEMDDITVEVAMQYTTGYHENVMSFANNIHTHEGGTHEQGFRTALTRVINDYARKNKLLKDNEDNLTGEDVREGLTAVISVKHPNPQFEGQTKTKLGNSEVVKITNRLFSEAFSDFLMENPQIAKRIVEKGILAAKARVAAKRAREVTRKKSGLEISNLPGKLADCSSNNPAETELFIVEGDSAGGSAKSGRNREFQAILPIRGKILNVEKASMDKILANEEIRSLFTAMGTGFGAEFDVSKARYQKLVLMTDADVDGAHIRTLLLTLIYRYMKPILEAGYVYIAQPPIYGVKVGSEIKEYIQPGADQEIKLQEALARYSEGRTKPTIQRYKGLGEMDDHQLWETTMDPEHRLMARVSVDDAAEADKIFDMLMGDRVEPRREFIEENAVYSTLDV

[6] = system: genetically concordant pathogens of Visit 2 or Visit 3; assay: Resistance development: PFGE and MIC testing of concordant isolate pairs from baseline and follow-up visits; type: cell-based
Experimental: PFGE testing was performed per standard procedures.
Isolate pairs from eyes with the same species at or above threshold at both baseline and follow-up visits were evaluated by Pulsed Field Gel Electrophoresis (PFGE) analysis to (i) distinguish new infections from recurrence and (ii) determine if any microbial eradication failures were correlated with antimicrobial resistance development during the study period.

S. pneumoniae DNA gyrase [7] = biological target: T1, S. pneumoniae DNA gyrase; assay: Cleavable complex stimulation (CC25), DNA gyrase; type: biochemical; conditions: S. pneumoniae enzymes; concentration that produces 25% linearization of the DNA
[8] = system: E. coli topoisomerase mutants; assay: MIC against defined topoisomerase mutants; type: cell-based; conditions: Escherichia coli
Experimental: Furthermore, an experiment was conducted to assess the mechanism of action of besifloxacin in S. pneumoniae, S. aureus, and E. coli via step selections for isolates with decreased susceptibility to besifloxacin, as well as by testing for altered susceptibilities of ciprofloxacin-resistant variants of all three species containing genetically defined mutations in the quinolone resistance determining regions (QRDRs) of structural genes encoding DNA gyrase and topoisomerase IV (Table 2).

[9] = system: S. pneumoniae topoisomerase mutants; assay: MIC against defined topoisomerase mutants; type: cell-based; conditions: Streptococcus pneumoniae
[10] = Study 424: tear fluid pharmacokinetics after single topical ocular instillation in healthy volunteers; type: in vivo, human
Experimental: This study was conducted to evaluate the ocular PK of besifloxacin in tear fluid after a single instillation of besifloxacin ophthalmic suspension, 0.6%, in both eyes of healthy volunteers and to compare the actual besifloxacin exposure to MICs of the most prevalent pathogens associated with bacterial conjunctivitis.
Healthy volunteers received a single instillation (37 μL by pipette) of besifloxacin ophthalmic suspension, 0.6%, in the conjunctival sac of each eye. A single tear sample was collected on a Schirmer tear strip from each healthy volunteer. […] Samples were analyzed using a validated LC/MS/MS method, and the LLOQ was 2 ng/mL (equivalent to approximately 0.2 μg/g for a 10-mg tear sample).
Mean tear concentration data were obtained from the per protocol (PP) set and the full analysis (FAS) set. For the purpose of this study, the PP set included all healthy volunteers with the exclusion of apparent outlier values. The FAS set included all healthy volunteers who received besifloxacin, and from whom all sampling data were available (no exclusion of outlier values).

[11] = Safety pharmacology: in vivo cardiovascular effects after systemic dosing
Text: The in vivo cardiovascular effects, specifically, an increase in QT duration, following besifloxacin systemic dosing were only observed after doses that were at least 300 times the intended ocular daily dose. There was no change in heart rate, blood pressure, or cardiac conduction.

[12] = 1324 clinical isolates of all species, Studies 373, 433, 434
[13] = Gram-negative bacteria (438 clinical isolates)
[14] = Gram-positive bacteria (886 clinical isolates)
[15] = Staphylococcus aureus (MRSA-CR)
[16] = Staphylococcus aureus (MSSA-CR)
[17] = Staphylococcus aureus (all phenotypes)
[18] = both sexes, human, tear fluid, topical, 37 μL of 0.6% suspension per eye, tears, single instillation 0.6% suspension, healthy volunteers, FAS
[19] = both sexes, human, tear fluid, topical, 37 μL of 0.6% suspension per eye, tears, single instillation 0.6% suspension, healthy volunteers, PP
[20] = tears, single instillation 0.6% suspension, healthy volunteers, FAS

N[C@@H]1CCCCN(c2c(F)cc3c(=O)c(C(=O)O)cn(C4CC4)c3c2Cl)C1 [Besifloxacin, (R)-(+)-(3-amino-2,3,4,5,6,7-hexahydro-1H-azepin-1-yl)-8-chloro-1-cyclopropyl-6-fluoro-1,4,-dihydro-4-oxo-3-quinolinecarboxylic acid]
isolates with MBC within 4-fold of the MIC [1]: more than 80% | bound to proteins in human plasma [2]: approximately 40% | MIC50 [3, 12]: 0.06 µg/mL | MIC90 [3, 12]: 0.25 µg/mL | MIC50 [3, 13]: 0.03 µg/mL | MIC90 [3, 13]: 0.5 µg/mL | MIC50 [3, 14]: 0.06 µg/mL | MIC90 [3, 14]: 0.25 µg/mL | MIC90 ([3]; clinical isolates from Asia): 1 µg/mL | AUC24/MIC90, Total [4]: 950 | Cmax/MIC90, Free ([4]; Haemophilus influenzae): 6100 | AUC24/MIC90, Free ([4]; Haemophilus influenzae): 38,010 | Cmax/MIC90, Free [4, 15]: 92 | AUC24/MIC90, Free [4, 15]: 570 | Cmax/MIC90, Free [4, 16]: 183 | AUC24/MIC90, Free [4, 16]: 1140 | Cmax/MIC90, Free [4, 17]: 732 | AUC24/MIC90, Free [4, 17]: 4561 | Cmax/MIC90, Free ([4]; Staphylococcus epidermidis): 732 | AUC24/MIC90, Free ([4]; Staphylococcus epidermidis): 4561 | Cmax/MIC90, Free ([4]; Streptococcus pneumoniae): 2928 | AUC24/MIC90, Free ([4]; Streptococcus pneumoniae): 18,245 | Cmax/MIC90, Total ([4]; human): 153 | potency relative to ciprofloxacin and moxifloxacin (catalytic inhibition and cleavable complex stimulation) (S. pneumoniae DNA gyrase [5]; S. pneumoniae DNA gyrase): 4- to 16 fold | IC50 (S. pneumoniae DNA gyrase [5]; S. pneumoniae enzymes): 2.5 µM and 2.54 µM | difference between inhibitory concentrations for DNA gyrase and topoisomerase IV (S. pneumoniae DNA gyrase [5]; S. pneumoniae enzymes): 2.5 fold | increase of MIC of Visit 2 or Visit 3 isolates versus baseline ([6]; Study 373, 47 genetically concordant isolate pairs): ≤ 2 fold | increase of MIC of Visit 2 or Visit 3 isolates versus baseline ([6]; Study 433, 122 genetically concordant isolate pairs): ≤ 2 fold | increase of MIC of Visit 2 or Visit 3 isolates versus baseline ([6]; Study 434, 65 genetically concordant isolate pairs): ≤ 2 fold | CC25 Gyrase (S. pneumoniae DNA gyrase [7]): 2.5 μM and 1 μg/mL | MIC ([8]; E. coli Wild type): 0.12 µg/mL (≈ 0.305 µM) | MIC ([8]; E. coli gyrA D87Y (or S83L)): 0.5 µg/mL (≈ 1.27 µM) | MIC ([8]; E. coli gyrA S83L + parC S80R): 16 µg/mL | MIC ([8]; E. coli gyrA S83L + parE H445L): 1 µg/mL | MIC ([8]; E. coli gyrB D426N): 0.5 µg/mL (≈ 1.27 µM) | MIC ([9]; S. pneumoniae Wild type): 0.12 µg/mL (≈ 0.305 µM) | MIC ([9]; S. pneumoniae gyrA S81F): 0.5 µg/mL (≈ 1.27 µM) | MIC ([9]; S. pneumoniae parC S79Y): 0.25 µg/mL (≈ 0.635 µM) | MIC ([9]; S. pneumoniae parC S79Y + gyrA S81F): 1 µg/mL | concentration at 24 h ([10]; both sexes, human, tear fluid, topical, 37 μL of 0.6% suspension per eye, 0.6% suspension, human tears, read-out: mean concentration in tears at 24 hours (C24h)): 1600 ± 2280 ng/g | concentration at 24 h ([10]; both sexes, human, tear fluid, topical, 37 μL of 0.6% suspension per eye, after a single dose of 0.6% suspension, humans, read-out: concentration in tears sustained for at least 24 hours): ≥ 1600 ng/g | Cmax [10, 18]: 610000 ± 540000 ng/g | Tmax [10, 18]: 0.17 h | half-life [10, 18]: 3.4 h | Cmax [10, 19]: 811000 ng/g | half-life [10, 19]: 3.51 h | time of mean maximum concentration in tears after instillation ([10]; single instillation, healthy volunteers): ≤ 10 min | AUC24 [10, 20]: 1232 µg·h/g | t1/2 [10, 20]: 3.43 h | AUC24 ([10]; tears, single instillation 0.6% suspension, healthy volunteers, PP): 1523 µg·h/g | dose at which an increase in QT duration was observed [11]: at least 300 times the intended ocular daily dose | heart rate, blood pressure, or cardiac conduction [11]: no change
